Experimental data taken from patent US8541442B2, “Indole derivatives as anticancer agents” (Janssen Pharmaceutica N.V., priority 2009, dated 2013).

Key:
[1] = system: colorectal cancer cell line HCT116; experiment: Alamar Blue cell proliferation assay, HCT116; type: cell-based; conditions: for HCT116 cell proliferation inhibition pIC50: HCT116 cells; for IC50: Homo sapiens, HCT-116, HCT116 cells, read-out: HCT116 cell proliferation inhibition pIC50 (converted)
Experimental: (§1) For experiments in 384 wells plates the cells were seeded at a density of 5×10^3 cells/ml in Falcon 384-well culture plates (Life Technologies, Merelbeke, Belgium), black with clear bottom, in 45 μl culture medium. Cells were allowed to adhere to plastic for 24 hr. The tested compound was pre-diluted (1/50 in culture medium) and 5 μl pre-diluted compound was added to the wells. Following 4-day incubation, 10 μl of the Alamar Blue solution was added to each well and the cells were further incubated for 5 hrs (A2780) at 37° C. The fluorescence intensity was measured for each well with a Fluorescence plate reader (Fluorskan, Labsystems, 540 nm excitation and 590 nm emission)
(§2) The antiproliferative activity was calculated as percentage of remaining viable cells in treated versus control (untreated cells) conditions. Within an experiment, the result for each experimental condition is the mean of 3 replicate wells. When appropriate, the experiments were repeated to establish full concentration-response curves. When appropriate, IC50-values (concentration of the drug, needed to reduce cell growth to 50% of the control) were computed using probit analysis for graded data (Finney, D. J., Probit Analyses, 2nd Ed. Chapter 10, Graded Responses, Cambridge University Press, Cambridge 1962). Herein the effects of test compounds are expressed as pIC50 (the negative log value of the IC50-value (M)) (see Table 5A).
(§3) Compounds were also tested according to the above protocol but using other cell lines: colorectal cancer cell line HCT116, non-small cell lung cancer cell line H1299, human prostate cancer cell line DU145.

[2] = system: p53 in A2780 cells; experiment: p53 ELISA (preservation of p53 in A2780 cells); type: cell-based, human; conditions: 16 hours treatment; for minimal effective concentration: Homo sapiens, A2780, 16 h, read-out: p53-elisa LAD (lowest dose giving at least 140% of the value for p53 present in the control)
Experimental: The capacity of the present compounds to preserve p53 in A2780 cells was measured with the p53 enzyme linked immunosorbent assay. The p53 assay is a “sandwich” enzyme immunoassay employing two polyclonal antibodies. A polyclonal antibody, specific for the p53 protein, has been immobilized onto the surface of the plastic wells. Any p53 present in the sample to be assayed will bind to the capture antibody. The biotinylated detector polyclonal antibody also recognizes p53 protein, and will bind to any p53, which has been retained by the capture antibody. The detector antibody, in turn, is bond by horseradish peroxidase-conjugated streptavidin. The horseradish peroxidase catalyses the conversion of the chromogenic substrate o-phenylene diamine, the intensity of which is proportional to the amount of p53 protein bond to the plate. The colored reaction product is quantified using a spectrophotometer. Quantitation is achieved by the construction of a standard curve using known concentrations of purified recombinant HIS tagged p53 protein (see example C.1.).
A2780 cells (ATCC) were cultivated in RPMI 1640 supplemented with 10% fetal calf serum (FCS), 2 mM L-glutamine and gentamycin at 37° C. in a humidified incubator with 5% CO2.
A2780 cells were seeded at 20.000 cells per well in a 96 well plate, cultured for 24 hours and treated with compound for 16 hours at 37° C. in a humidified incubator. After incubation, the cells were washed once with phosphate-buffered saline and 30 μl, per well, low salt RIPA buffer (20 mM tris, pH7.0, 0.5 mM EDTA, 1% Nonidet P40, 0.5% DOC, 0.05% SDS, 1 mM PMSF, 1 μg/ml aprotinin and 0.5 μ/ml leupeptin) was added. Plates were placed on ice for 30 minutes to complete the lysis. p53 protein was detected in de lysates by using the sandwich ELISA, described below.
High binding polystyrene EIA/RIA 96 well plates (Costar 9018) were coated with the capture antibody pAb1801 (Abcam ab28-100) at a concentration of 1 μg/ml in coating buffer (0.1 M NaHCO3 pH8.2), 50 μl per well. The antibody was allowed to adhere overnight at 4° C. Coated plates were washed once with phosphate-buffered saline (PBS)/0.05% Tween 20 and 300 μl of blocking buffer (PBS, 1% bovine serum albumins (BSA)) was added, for an incubation period of 2 hours at room temperature. Dilutions of purified recombinant HIS tagged p53 protein, ranging from 3-200 ng/ml, were made in blocking buffer and used as standards.
Plates were washed twice with PBS/0.05% Tween 20 and blocking buffer or standards were added at 80 μl/well. To the standards, 20 μl of lysis buffer was added. The samples were added to the other wells at 20 μl lysate/well. After an overnight incubation at 4° C., plates were washed twice with PBS/0.05% Tween 20. Aliquots of 100 μl secondary polyclonal antibody p53(FL-393) (Tebubio, sc-6243) at a concentration of 1 μg/ml in blocking buffer were added to each well and allowed to adhere for 2 hours at room temperature. Plates were washed three times with PBS/0.05% Tween 20. Detection antibody anti-rabbit HRP (sc-2004, Tebubio) at 0.04 μg/ml in PBS/1% BSA was added and incubated for 1 hour at room temperature. Plates were washed three times with PBS/0.05% Tween 20 and 100 μl of substrate buffer was added (substrate buffer was prepared shortly before use by adding 1 tablet of 10 mg o-phenylene diamine (OPD) from Sigma and 125 μl 3% H2O2 to 25 ml OPD buffer: 35 mM citric acid, 66 mM Na2HPO4, pH5.6). After 5 to 10 minutes, colour reaction was stopped by adding 50 μl stop buffer (1 M H2SO4) per well. The absorbance at dual wavelengths of 490/655 nm was measured using a Biorad micro plate reader and the results were then analyzed.
For each experiment, controls (containing no drug) and a blank incubation (containing no cells or drugs) were run in parallel. The blank value was subtracted from all control and sample values. For each sample, the value of p53 (in absorbance units) was expressed as the percentage of the value for p53 present in the control. […]

[3] = system: human prostate cancer cell line DU145; experiment: Alamar Blue cell proliferation assay, DU145; type: cell-based; conditions: for DU145 cell proliferation inhibition pIC50: DU145 cells; for IC50: Homo sapiens, DU-145, DU145 cells, read-out: DU145 cell proliferation inhibition pIC50 (converted)
Experimental: as §1, §2, §3

SMILES	HCT116 cell proliferation inhibition pIC50 [1]	p53-elisa LAD (lowest dose giving at least 140% of the value for p53 present in the control) [2]	DU145 cell proliferation inhibition pIC50 [3]	IC50 [1]	IC50 [3]	minimal effective concentration [2]
Cc1cc(Nc2ccnc3c2CCC3O)ccc1NCCc1c[nH]c2c(C(C)O)cccc12 (single isomer, unassigned) [Compound 12]	6.06	0.10 µM	–	–	–	–
Cc1cc(Nc2ccnc3c2CCC3O)ccc1NCCc1c[nH]c2c(C(C)O)cccc12 (single isomer, unassigned) [Compound 15]	6.69	0.10 µM	–	–	–	–
Cc1cc(Nc2ccnc3c2CCC3O)ccc1NCCc1c[nH]c2c(CCO)cccc12 (single isomer, unassigned) [Compound 23]	5.53	3.00 µM	5	–	–	–
COC1CCc2c(Nc3ccc(NCCc4c[nH]c5c(C(C)(C)O)cccc45)cc3)ccnc21 (single isomer, unassigned) [Compound 24]	–	0.03 µM	–	0.038 µM	0.295 µM	–
COC1CCc2c(Nc3ccc(NCCc4c[nH]c5c(C(C)(C)O)cccc45)cc3)ccnc21 (single isomer, unassigned) [Compound 25]	–	0.10 µM	–	–	–	–
Cc1cc(Nc2ccnc3c2CCC3(C)O)ccc1NCCc1c[nH]c2c(C(C)(C)O)cccc12 (single isomer, unassigned) [Compound 26]	7.26	0.10 µM	6.18	–	–	–
Cc1cc(Nc2ccnc3c2CCC3(C)O)ccc1NCCc1c[nH]c2c(C(C)(C)O)cccc12 (single isomer, unassigned) [Compound 27]	–	–	–	0.0832 µM	1 µM	0.1 µM
COC1CCc2c(Nc3ccc(NCCc4c[nH]c5c(C(C)(C)O)cccc45)c(C)c3)ccnc21 (single isomer, unassigned) [Compound 28]	7.11	0.10 µM	6.52	–	–	–
COC1CCc2c(Nc3ccc(NCCc4c[nH]c5c(C(C)(C)O)cccc45)c(C)c3)ccnc21 (single isomer, unassigned) [Compound 29]	7.37	0.03 µM	6.58	–	–	–
CC(C)(O)c1cccc2c(CCNc3ccc(Nc4ccnc5c4CCC5(C)O)cc3)c[nH]c12 (single isomer, unassigned) [Compound 30]	7.19	0.10 µM	6.14	–	–	–
CC(C)(O)c1cccc2c(CCNc3ccc(Nc4ccnc5c4CCC5(C)O)cc3)c[nH]c12 (single isomer, unassigned) [Compound 31]	6.94	0.10 µM	6.04	–	–	–
Cc1cc(Nc2ccnc3c2CCC3(C)O)ccc1NCCc1c[nH]c2c(C(C)(C)O)cccc12 (stereo not drawn) [Compound 1]	–	–	–	0.151 µM	1.2 µM	0.1 µM
Cc1cc(Nc2ccncc2)ccc1NCCc1c[nH]c2c(C(C)(C)O)cccc12 [Compound 2]	–	–	–	–	0.692 µM	0.1 µM
Cc1cc(Nc2ccnc3c2CCC3=O)ccc1NCCc1c[nH]c2c(C(C)O)cccc12 (stereo not drawn) [Compound 4]	–	–	–	1 µM	5.13 µM	0.1 µM
Cc1cc(Nc2ccnc(CO)c2)ccc1NCCc1c[nH]c2c(C(C)O)cccc12 (stereo not drawn) [Compound 5]	–	–	–	0.347 µM	2.75 µM	0.1 µM
OCc1cccc2c(CCNc3ccc(Nc4ccnc5c4CCC5O)cc3)c[nH]c12 (stereo not drawn) [Compound 6]	–	–	–	4.07 µM	–	1 µM
C=C(C)c1cccc2c(CCNc3ccc(Nc4ccnc5c4CCC5OC)cc3)c[nH]c12 (stereo not drawn) [Compound 7]	–	–	–	0.1 µM	0.251 µM	0.3 µM
Cc1cc(Nc2ccnc3c2CCC3O)ccc1NCCc1c[nH]c2c(CCC(C)O)cccc12 (stereo not drawn) [Compound 9]	–	–	–	0.955 µM	5.5 µM	1 µM
Cc1cc(Nc2ccnc3c2CCC3(C)O)ccc1NCCc1c[nH]c2c(C(C)O)cccc12 (stereo not drawn) [Compound 10]	6.47	1.0 µM	5.65	–	–	–
COc1cc(Nc2ccnc3c2CCC3O)ccc1NCCc1c[nH]c2c(C(C)(C)O)cccc12 (stereo not drawn) [Compound 11]	6.67	0.30 µM	6.21	–	–	–
COC1CCc2c(Nc3ccc(NCCc4c[nH]c5c(C(C)O)cccc45)c(C)c3)ccnc21 (stereo not drawn) [Compound 16]	6.68	0.30 µM	5.98	–	–	–
Cc1cc(Nc2ccnc3c2CCC3O)ccc1NCCc1c[nH]c2c(C(C)(C)O)cccc12 (stereo not drawn) [Compound 18]	–	0.03 µM	6.40	0.0537 µM	–	–
Cc1cc(Nc2ccnc(CO)c2)ccc1NCCc1c[nH]c2c(C(C)(C)O)cccc12 [Compound 19]	–	0.10 µM	5.74	–	–	–
Cc1cc(Nc2ccnc3c2CCC3O)ccc1NCCc1c[nH]c2c(C(C)(C)O)cccc12 (stereo not drawn) [Compound 20]	–	–	5.73	–	–	0.03 µM
Cc1cc(Nc2ccncc2)ccc1NCCc1c[nH]c2c(C(O)C(C)C)cccc12 (stereo not drawn) [Compound 22]	–	3.00 µM	5.07	–	–	–
